Measurements from paper PMC9611521, “Optimization of Resveratrol Used as a Scaffold to Design Histone Deacetylase (HDAC-1 and HDAC-2) Inhibitors” (Pharmaceuticals, 2022).

Legend:
Assay type in all cases: biochemical
Conditions in all cases: compound at 10 µM
HDAC-4 = HDAC-4 (Homo sapiens, UniProt P56524); experiment: Enzymatic HDAC selectivity panel, HDAC-4
Experimental: (§1) Enzymatic assays to evaluate HDAC inhibition were performed, and the design involved three steps: (a) Preliminary screening to identify the most promising compounds; (b) Evaluation by a panel of HDAC isoforms to investigate selectivity; and (c) Determination of IC50 values. Firstly, compounds (4–7; 15–26) were evaluated at 10 µM against HDAC-1 and HDAC-2 (Table 2).
(§2) The enzymatic assay to evaluate HDAC inhibitory effects for all final compounds against the distinct isoforms was carried out in accordance with the previously described procedures (Lopes et al., 2021). All compounds were initially screened at 10 µM against HDAC-1 and HDAC-2. […] All the compounds were dissolved in DMSO. A serial dilution of the compounds was performed in 100% DMSO with the highest concentration at 1 mM. Each intermediate compound dilution (in 100% DMSO) was diluted 10x in assay buffer to form a 10% DMSO intermediate dilution in HDAC assay buffer. 5 µL of this dilution was added to a 50 µL reaction to bring the final concentration of DMSO to 1% in all the reactions. […] The fluorescence intensity was measured at an excitation of 360 nm and emission of 460 nm using a Tecan Infinite M1000 microplate reader, and the percentage of activity was calculated using the formula: % activity = (F − Fb)/(Ft − Fb), where F = the intensity of fluorescence in the presence of the compound. […]

HDAC-6 = molecular target: T1, HDAC-6 (Homo sapiens, UniProt Q9UBN7); experiment: Enzymatic HDAC selectivity panel, HDAC-6
T1 sequence (Q9UBN7 1-1215): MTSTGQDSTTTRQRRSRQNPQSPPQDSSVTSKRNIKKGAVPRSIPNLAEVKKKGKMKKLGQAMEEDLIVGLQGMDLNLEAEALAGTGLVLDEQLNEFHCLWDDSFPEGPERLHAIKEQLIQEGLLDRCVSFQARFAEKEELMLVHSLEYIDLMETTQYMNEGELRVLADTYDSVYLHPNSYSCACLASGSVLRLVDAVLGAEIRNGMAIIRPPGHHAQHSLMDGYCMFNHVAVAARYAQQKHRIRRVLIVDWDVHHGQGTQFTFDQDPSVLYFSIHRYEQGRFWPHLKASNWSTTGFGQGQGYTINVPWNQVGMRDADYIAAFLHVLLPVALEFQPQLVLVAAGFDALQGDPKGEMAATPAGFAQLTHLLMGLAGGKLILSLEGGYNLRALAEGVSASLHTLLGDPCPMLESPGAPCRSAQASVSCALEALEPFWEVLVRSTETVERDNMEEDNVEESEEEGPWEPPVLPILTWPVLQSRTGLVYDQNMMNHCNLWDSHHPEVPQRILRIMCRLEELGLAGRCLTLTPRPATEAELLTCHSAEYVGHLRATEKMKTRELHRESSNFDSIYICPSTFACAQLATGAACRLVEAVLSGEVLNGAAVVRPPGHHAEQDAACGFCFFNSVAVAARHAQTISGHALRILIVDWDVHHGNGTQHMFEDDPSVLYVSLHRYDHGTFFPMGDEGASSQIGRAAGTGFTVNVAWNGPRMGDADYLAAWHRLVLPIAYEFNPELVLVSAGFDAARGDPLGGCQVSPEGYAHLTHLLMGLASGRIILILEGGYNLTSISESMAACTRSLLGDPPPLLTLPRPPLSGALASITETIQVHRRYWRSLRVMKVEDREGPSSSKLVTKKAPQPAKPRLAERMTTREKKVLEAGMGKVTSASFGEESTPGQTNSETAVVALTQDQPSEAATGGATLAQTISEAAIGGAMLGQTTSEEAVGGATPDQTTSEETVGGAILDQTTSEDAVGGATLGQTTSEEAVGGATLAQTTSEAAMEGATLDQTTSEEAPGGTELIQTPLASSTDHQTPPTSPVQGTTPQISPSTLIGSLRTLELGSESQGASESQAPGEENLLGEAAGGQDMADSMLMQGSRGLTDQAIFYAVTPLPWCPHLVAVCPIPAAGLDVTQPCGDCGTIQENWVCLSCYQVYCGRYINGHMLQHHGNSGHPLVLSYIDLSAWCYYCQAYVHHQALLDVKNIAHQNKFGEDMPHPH
Experimental: as §1, §2

HDAC-8 = molecular target: T2, HDAC-8 (Homo sapiens, UniProt Q9BY41); experiment: Enzymatic HDAC selectivity panel, HDAC-8
T2 sequence (Q9BY41 1-377): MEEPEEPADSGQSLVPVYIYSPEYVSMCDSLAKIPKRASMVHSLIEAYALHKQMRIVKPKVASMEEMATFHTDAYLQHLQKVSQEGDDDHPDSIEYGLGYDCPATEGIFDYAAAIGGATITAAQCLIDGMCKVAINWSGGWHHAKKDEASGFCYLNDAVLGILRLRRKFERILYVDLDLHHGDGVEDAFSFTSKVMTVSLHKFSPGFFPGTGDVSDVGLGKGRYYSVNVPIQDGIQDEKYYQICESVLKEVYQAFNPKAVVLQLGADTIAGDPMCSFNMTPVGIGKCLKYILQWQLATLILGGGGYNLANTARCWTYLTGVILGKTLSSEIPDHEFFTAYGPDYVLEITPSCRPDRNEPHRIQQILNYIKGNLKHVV
Experimental: as §1, §2

Sequence of HDAC-4 (P56524 whole entry, canonical isoform): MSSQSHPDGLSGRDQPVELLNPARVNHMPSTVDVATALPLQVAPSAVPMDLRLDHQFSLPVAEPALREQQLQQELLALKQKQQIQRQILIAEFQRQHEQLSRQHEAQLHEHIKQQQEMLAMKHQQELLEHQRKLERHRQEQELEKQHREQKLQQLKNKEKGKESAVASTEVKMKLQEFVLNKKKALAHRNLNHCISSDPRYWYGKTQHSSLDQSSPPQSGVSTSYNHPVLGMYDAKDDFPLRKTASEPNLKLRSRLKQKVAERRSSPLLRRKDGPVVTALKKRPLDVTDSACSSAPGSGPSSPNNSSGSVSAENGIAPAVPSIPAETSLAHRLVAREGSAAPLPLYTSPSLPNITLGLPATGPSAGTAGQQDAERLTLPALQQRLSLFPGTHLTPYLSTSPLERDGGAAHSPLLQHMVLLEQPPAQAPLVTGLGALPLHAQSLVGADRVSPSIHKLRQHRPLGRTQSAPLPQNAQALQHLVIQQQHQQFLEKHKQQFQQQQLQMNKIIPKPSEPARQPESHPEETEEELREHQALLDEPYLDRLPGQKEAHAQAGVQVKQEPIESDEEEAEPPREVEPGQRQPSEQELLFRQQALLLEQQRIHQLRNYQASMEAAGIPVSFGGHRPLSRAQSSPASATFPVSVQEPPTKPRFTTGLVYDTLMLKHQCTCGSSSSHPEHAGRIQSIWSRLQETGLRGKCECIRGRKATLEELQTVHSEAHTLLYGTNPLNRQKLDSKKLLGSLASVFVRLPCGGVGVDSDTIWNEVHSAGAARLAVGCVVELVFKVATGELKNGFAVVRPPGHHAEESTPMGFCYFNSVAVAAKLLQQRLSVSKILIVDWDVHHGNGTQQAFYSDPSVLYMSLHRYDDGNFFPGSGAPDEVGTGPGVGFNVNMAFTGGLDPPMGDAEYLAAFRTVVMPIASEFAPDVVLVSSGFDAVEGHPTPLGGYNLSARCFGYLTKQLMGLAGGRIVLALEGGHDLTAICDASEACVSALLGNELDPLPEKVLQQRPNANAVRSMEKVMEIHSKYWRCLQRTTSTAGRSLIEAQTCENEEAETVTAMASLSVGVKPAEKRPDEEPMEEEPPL

inhibition at 10 µM (HDAC-4): 5 ± 0.4%
inhibition at 10 µM (HDAC-6): 3 ± 0.4%
inhibition at 10 µM (HDAC-8): 13 ± 1%
Structure (SMILES): Nc1ccc(CCc2ccc(C(=O)Nc3ccccc3N)cc2)cc1 [Compound (5)]
